# PubChem BioAssay (NCI)
#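 Each compound was tested at five concentrations against cells in 96-well plates for 48 hours. At the GI50, growth is halved. At the TGI there is no net growth.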
# Assays:
# Assay in all cases: inhibition of tumour cell growth, NCI panel, 48 h
# [1] = test system: SR leukemia
# [2] = test system: OVCAR-3 ovarian
# [3] = test system: HCT-116 colon
# [4] = test system: SK-MEL-2 melanoma
# [5] = test system: HCC-2998 colon
# [6] = test system: COLO 205 colon
# [7] = test system: UO-31 renal
# [8] = test system: U251 CNS
# [9] = test system: SK-OV-3 ovarian
# [10] = test system: HOP-92 NSCLC
Compound,TGI [1] [µM],TGI [2] [µM],TGI [3] [µM],TGI [4] [µM],TGI [5] [µM],TGI [6] [µM],TGI [7] [µM],TGI [8] [µM],TGI [9] [µM],GI50 [10] [µM],TGI [10] [µM],GI50 [2] [µM],GI50 [3] [µM],GI50 [4] [µM],GI50 [5] [µM],GI50 [6] [µM],GI50 [7] [µM],GI50 [8] [µM],GI50 [9] [µM],GI50 [1] [µM]
CNC(c1ccncc1)C(NC)c1ccncc1 (centres undefined),> 100,> 100,> 100,> 100,> 100,> 100,> 100,> 100,> 100,,,,,,,,,,,
CCCCCCCCCCSC(=N)N,,13.8,10.1,3.27,3.31,2.91,12.4,6.72,19.9,1.42,4.59,3.71,2.96,1.68,1.72,1.55,2.61,2.37,7.38,
COc1cc(C(C#N)NNc2nc(C)cc(=O)[nH]2)cc(OC)c1OC (centres undefined),> 100,> 100,> 100,> 100,,> 100,> 100,> 100,> 100,,> 100,,,,,,,,,
CC(=O)OC(=O)O/C=C\CCl,> 100,> 100,> 100,> 100,> 100,> 100,> 100,> 100,> 100,,,,,,,,,,,
COC(=O)C(C(=O)C(N)=O)c1csc(-n2nc(-c3ccccc3)cc2-c2ccccc2)n1 (centres undefined),,> 100,> 31.6,> 31.6,> 31.6,> 31.6,28.9,> 31.6,> 31.6,,> 100,,,,,,,,,
O=C1CCC(=O)c2sccc2N1,,> 100,> 100,> 100,> 100,> 100,> 100,> 100,> 100,,> 100,,,,,,,,,
O=CCCCC(Sc1ccccc1)Sc1ccccc1,48.3,68,28.4,42.7,84,57.9,66.8,30.3,59.4,,,,,,,,,,,
CCOC(=O)c1c(C)n(Cc2ccccc2)c2c1cc1oc(=O)c(=O)n3cnc2c13,> 50,34.7,15.3,> 50,,30.6,> 50,> 50,> 50,2.83,20.1,12.3,7.36,> 50,,12.8,25.6,12,> 50,7.99
O=C(/C=C/C1C(=O)NC(=O)NC1=O)CC(=O)C(=O)Nc1cc(Cl)c(Cl)cc1Cl,> 100,> 100,> 100,> 100,> 100,> 100,> 100,> 100,> 100,,,,,,,,,,,
O=C(c1ccc2ccccc2c1)c1c(C(F)(F)F)n([O-])c2ccc(F)cc2[n+]1=O,1.49,,2.97,2.82,2.12,0.425,,2.81,5.05,1.21,2.95,,1.5,1.2,0.892,0.188,,1.47,2.16,0.277
[CH3][Sn]1([CH3])[O]CC(COc2cc(Cl)c(Cl)cc2Cl)[O]1 (centres undefined),,> 100,> 100,> 100,> 100,> 100,> 100,> 100,> 100,,,42.8,73.7,62,62.5,> 100,71,> 100,85.6,
C/C(CC(=O)Nc1cccc([N+](=O)[O-])c1)=N\NC(=O)CC#N,,> 100,> 100,> 100,> 100,> 100,> 100,> 100,> 100,,> 100,,,,,,,,,
O=c1c2ccccc2nc(-c2ccccc2)n1NC(=S)Nc1cccc(Cl)c1,> 100,,> 100,> 100,,> 100,> 100,> 100,> 100,,94.5,,,,,,,,,
CC(=O)Nc1ccc(-c2nnc(SCC(=O)Nc3ccc(Cl)cc3)o2)cc1,,31.1,20.2,49,37.5,34.6,33.6,12.9,47.1,,,,,,,,,,,
c1ccc(-c2ccnc3c2ccc2c(-c4ccccc4)ccnc23)cc1,1.29,10.1,10.4,11.4,14.3,6.71,4.91,6.79,11.6,,,,,,,,,,,
COc1ccc(C)cc1C1CCC(=O)O1 (centres undefined),> 100,> 100,> 100,> 100,> 100,> 100,> 100,> 100,> 100,,,,,,,,,,,
NS(=O)(=O)c1ccc(NC(=O)c2cccc(NC3=C(Cl)C(=O)N(Cc4ccccc4)C3=O)c2)cc1,1.73,27,43.4,33.2,,85.8,6.4,19.6,77.5,8.09,31.1,12.4,13.9,10.3,,22.6,2.27,5.18,26.9,0.323
O=S1(=O)c2ccccc2N=C(c2ccccc2Cl)CC1c1ccc(F)cc1 (centres undefined),,27.4,22.9,35.9,28.4,40.3,28.6,28.4,89,,34.6,,,,,,,,,
Cc1cc2nc(-c3c(F)cccc3Cl)n(Cc3c(F)cccc3Cl)c2cc1C,> 100,,20.3,> 100,23.7,26.3,54.5,29.9,51.8,14,33.5,,6.43,50.2,11.2,11.6,13.2,14.1,19.3,17.5
